Results on 4 compounds are retold here after ChEMBL document CHEMBL3407448 (J Med Chem, 2015).

Series [1] can be described thus: AUC (infinity) in male Wistar rat at 7 mg/kg, po. The series is classed as ADME, organism-based. Details: time infinity, dose 7 mg/kg, route oral. Particulars: plasma.
The nature of series [2]: Cmax in male Wistar rat at 7 mg/kg, po. As to conditions: in vivo. Details: dose 7 mg/kg, route oral. Type of series: ADME, organism-based.
For a further series, the system named is Rattus norvegicus. Kind of series: (§1) Volume of distribution at steady state in male Wistar rat at 1 mg/kg, iv. Particulars: in vivo. Type of series: ADME, organism-based. Details: dose 1 mg/kg, route intravenous.
Series [3] is described as follows: Tmax in male Wistar rat at 7 mg/kg, po. The series is classed as ADME, organism-based. Details: dose 7 mg/kg, route oral. As to conditions: in vivo.
Series [4] can be described thus: Oral bioavailability in male Wistar rat at 7 mg/kg. As to conditions: in vivo. The series is classed as ADME, organism-based.
Series [5] in a line: Ratio of drug level in CSF to plasma in male Wistar rat. Type of series: ADME.
A short description of series [6]: Volume of distribution at steady state in male Wistar rat at 2 mg/kg, iv. Particulars: in vivo, read-out: Vdss. The series is classed as ADME, organism-based. Details: dose 2 mg/kg, route intravenous.
Series [7] in a line: Ratio of drug level in brain to plasma in male Wistar rat. Type of series: ADME. Particulars: read-out: BPR.
Series [8] is described as follows: Tmax in male Wistar rat at 10 mg/kg, po. Particulars: in vivo. Details: dose 10 mg/kg, route oral. Type of series: ADME, organism-based.
Series [9] is described as follows: Oral bioavailability in male Wistar rat at 10 mg/kg. Type of series: ADME, organism-based. Particulars: in vivo.
The nature of series [10]: Cmax in male Wistar rat at 10 mg/kg, po. Type of series: ADME, organism-based. Details: dose 10 mg/kg, route oral. Particulars: in vivo.
Series [11] in a line: AUC (infinity) in male Wistar rat at 10 mg/kg, po. Type of series: ADME, organism-based. Details: time infinity, dose 10 mg/kg, route oral. Particulars: plasma.
Series [12] in a line: AUC (infinity) in fed cynomolgus monkey at 0.3 mg/kg, po. The series is classed as ADME, organism-based, Macaca fascicularis. Details: time infinity, dose 0.3 mg/kg, route oral. As to conditions: plasma.
A short description of series [13]: Oral bioavailability in fasted cynomolgus monkey at 0.3 mg/kg. As to conditions: in vivo. The series is classed as ADME, organism-based, Macaca fascicularis.
Series [14] in a line: Cmax in fed cynomolgus monkey at 0.3 mg/kg, po. Particulars: in vivo. Details: dose 0.3 mg/kg, route oral. The series is classed as ADME, organism-based, Macaca fascicularis.
Series [15] is described as follows: AUC (infinity) in fasted cynomolgus monkey at 0.3 mg/kg, po. Details: time infinity, dose 0.3 mg/kg, route oral. Particulars: plasma. Type of series: ADME, organism-based, Macaca fascicularis.
Series [16] in a line: Tmax in fasted cynomolgus monkey at 03 mg/kg, po. As to conditions: in vivo, 3 mg/kg. The series is classed as ADME, organism-based, Macaca fascicularis. Details: dose 3 mg/kg, route oral.
Series [17] relates to Plasma. The series can be described thus: Plasma concentration in male Sprague-Dawley rat at 0.03 mg/ml, po. The series is classed as ADME.
Series [18] can be described thus: Volume of distribution at steady state cynomolgus monkey at 1 mg/kg, iv. The series is classed as ADME, organism-based, Macaca fascicularis. Details: dose 1 mg/kg, route intravenous. Particulars: in vivo, read-out: Vdss.
Series [19] is described as follows: as §1. The series is classed as ADME, organism-based. Details: dose 1 mg/kg, route intravenous. As to conditions: male, Wistar, in vivo, read-out: Vdss.
In series [20] the test system is Plasma. The series can be described thus: Plasma concentration in male Sprague-Dawley rat at 0.3 mg/ml, po. The series is classed as ADME.
Series [21] is described as follows: Cmax in fasted cynomolgus monkey at 0.3 mg/kg, po. As to conditions: in vivo. Details: dose 0.3 mg/kg, route oral. Type of series: ADME, organism-based, Macaca fascicularis.
The nature of series [22]: Tmax in fed cynomolgus monkey at 03 mg/kg, po. Details: dose 3 mg/kg, route oral. As to conditions: in vivo, 3 mg/kg. Type of series: ADME, organism-based, Macaca fascicularis.
Series [23] can be described thus: Oral bioavailability in fed cynomolgus monkey at 0.3 mg/kg. Particulars: in vivo. The series is classed as ADME, organism-based, Macaca fascicularis.

What is called AUC(0-inf) is total exposure, with the tail of the curve extrapolated. In general, Cmax refers to the maximum level reached in the sampled fluid or tissue. By Vdss is commonly meant a proportionality between amount in the body and measured concentration, not a real space. Usually Tmax stands for the time from dosing to the highest level. As a reminder, the bioavailability is dose-corrected exposure relative to a reference, in per cent.

`C(#Cc1ncn2c1COc1ccccc1-2)c1ccccc1`: the area under the curve AUC(0-inf) in series [1] stood at 661 ng·h/mL. Also, in [2], the concentration peaked (Cmax) at 158 ng/mL. Also, the volume of distribution (Vdss) in the series on Rattus norvegicus was 2.9 L/kg. For the same compound, the Tmax in series [3] is 2.3 h. Moreover, in [4], the bioavailability is 18%.

Take `Cc1cc(C#Cc2cn(-c3ccc(F)cc3)c(C)n2)ccn1`: the AUC(0-inf) in series [1] amounted to 10500 ng·h/mL. Also, the Cmax in series [2] turned out to be 1660 ng/mL. In addition, the Tmax in series [3] is 1.1 h. For the same compound, the Kp in series [5] came out at 0.02; in [7] it was 0.4. In addition, the bioavailability in series [4] turned out to be 84%. The Vd in series [6] stood at 0.8 L/kg.

Turning to `Cc1nc(C#Cc2ccnc(Cl)c2)c(C)n1-c1ccc(OC(F)(F)F)cc1`, in series [8], the Tmax is 5.5 h. In addition, the bioavailability in series [9] is 98%. In series [10], this compound returned a Cmax of 619 ng/mL. Moreover, the Vd in series [6] was determined as 11 L/kg. The same compound returned an AUC(0-inf) in series [11] of 78900 ng·h/mL. The Kp in [7] amounted to 2.6.

As to `Cc1nc(C#Cc2ccnc(Cl)c2)c(C)n1-c1ccc(F)cc1` [BASIMGLURANT], the AUC(0-inf) came out at 298 ng·h/mL in [12], 852 ng·h/mL in series [15] and 25600 ng·h/mL in series [11]. Also, the bioavailability in series [13] is 100%; in series [9], 91%; in series [23], 54%. The Cmax in series [14] was determined as 36.1 ng/mL; in series [21], 76.5 ng/mL; in series [10] it was 1580 ng/mL. For the same compound, the Tmax in series [16] was 1 h; in [8] it was 6.2 h; in series [22], 2 h. Further, the Cp in the series on Plasma [17] was 5 ng/mL; in the series on Plasma [20], 37 ng/mL. For the same compound, the Vd in [18] came out at 5.1 L/kg; in [19] it was 4 L/kg. For the same compound, the figures for the Kp in series [5] and in [7] were 0.06 and 2.9, respectively.
